The results in this text go back to patent US12496297B1, “Compositions of autophagy modulating agents and uses thereof” (Washington University, priority 2020, dated 2025).

Molecules are shown by their SMILES.

What is called IC50 is the midpoint of a concentration-inhibition curve. Lower therefore signals inhibition by little substance.

One test has as its system α1-antitrypsin Z variant (ATZ). Briefly: Steady state levels of ATZ in HTO/Z cell line (immunoblot); activity of G2 analogs. Particulars: 48 hrs incubation, immunoblot, FIG. 8 / FIG. 14. The class given is cell-based, human. The protocol: For experiments with G2 analogs, Tet-off inducible cell lines were cultured in absence of doxycycline for at least 12 days to ensure expression of […] or its variants. The cells were then sub-cultured into separate monolayers in fresh complete growth medium and incubated for 48 hours in the absence or presence of G2 analog. […] All compounds available commercially were purchased except for G2-22, which was synthesized with routine chemistry.
Cells were lysed in NP40 buffer and then separated into insoluble and soluble fractions according to a previously established technique. Samples were subjected to immunoblot analysis for AT and GAPDH. For immmunoblot analysis to detect AT or GAPDH, cells were lysed in 50 mM Tris-HCl, 150 mM NaCl, 1% NP-40, pH 8.0. Protein concentrations were determined by BCA protein assay (Pierce Biotechnology, Rockford, IL). […] The membranes were blocked in 5% milk and then incubated overnight at 4° C. with primary antibody for AT (1:1000, Diasorin), LC3 (1:2000, Sigma), p62 (1:1000, Cell signaling, Danvers, MA), ATG5 (1:1000, Cell signaling), mTOR substrate sampler (1:1000 for all antibodies, Cell signaling). Donkey anti-goat Ig (Jackson Labs, Bar Harbor, ME), goat anti-rabbit lg (1:50,000), or goat anti-mouse Ig (1:50,000) were used as secondary antibodies in TBST at RT, 1 hour. Blots were visualized with ECL or West Femto from Pierce. Membranes were re-probed with GAPDH (1:5000, Sigma) as loading control. Insoluble samples were stained with Gel Code Blue as loading control.
In general terms: Immunoblotting shows a protein as a band on a membrane.
As for `CCCCCCOc1cc(Cl)cc2[nH]c(=O)ccc12` [G2-218, 7-chloro-5-(hexyloxy)quinolin-2(1H)-one], the “effect on cellular ATZ levels” value is given as “reduce ATZ levels in a dose-dependent manner”.

Still in this test, the particulars now being: G2 and G2 analogs; positive activity if shown to have any activity, not quantified.
With `O=c1ccc2c(-c3ncccn3)cc(Cl)cc2[nH]1` [G2-197, 7-chloro-5-(pyrimidin-2-yl)quinolin-2(1H)-one], the result was Active.
Still for that read-out and setting: next, `O=c1ccc2c(Cl)cc(N3CCCCC3)cc2[nH]1` [G2-235, 5-chloro-7-(piperidin-1-yl)quinolin-2(1H)-one]: “Active”; `CNC(=O)c1cc(Cl)ccc1OCCC(C)C` [G2-17, 5-chloro-2-(isopentyloxy)-N-methylbenzamide]: “Inactive”; `Cn1ccc2cc(-c3cccnc3)ccc2c1=O` [G2-43, 2-methyl-6-(pyridin-3-yl)isoquinolin-1(2H)-one]: “Inactive”.
The same measure, in the same setting: in the case of `O=c1ccc2ccc(Cl)cc2[nH]1` [G2-69, 7-chloroquinolin-2(1H)-one] it was “Active (Most Highly Active)”; in that of `CN1CCNC(=O)c2cc(Cl)ccc21` [G2-11, 7-chloro-1-methyl-1,2,3,4-tetrahydro-5H-benzo[e][1,4]diazepin-5-one], “Inactive”.
With `CNC(=O)c1cc(Cl)ccc1OC` [G2-3, 5-chloro-2-methoxy-N-methylbenzamide], the result was Active.
Same read-out and setting: in the case of `O=c1ccc2c(N3CCCCC3)cc(Cl)cc2[nH]1` [G2-195, 7-chloro-5-(piperidin-1-yl)quinolin-2(1H)-one] it was “Active”; in that of `Cn1c(=O)ccc2ccc(-c3cccnc3)cc21` [G2-83, 1-methyl-7-(pyridin-3-yl)quinolin-2(1H)-one], “Inactive”.
Take `O=c1ccc2ccc(C3CC3)cc2[nH]1` [G2-156, 7-cyclopropylquinolin-2(1H)-one]: the result was Active.
As for `CNC(=O)c1cc(Cl)ccc1OCc1ccccc1` [G2-12-3, 2-(benzyloxy)-5-chloro-N-methylbenzamide], the outcome was Inactive.
As to `Cn1ccc2cc(N3CCCCC3)ccc2c1=O` [G2-61, 2-methyl-6-(piperidin-1-yl)isoquinolin-1(2H)-one], the outcome was Inactive.
On to `Cn1ccc2cc(-c3ccn[nH]3)ccc2c1=O` [G2-65, 2-methyl-6-(1H-pyrazol-5-yl)isoquinolin-1(2H)-one], for which the result was Inactive.
Consider `Cc1cn(C)c(=O)c2ccc(Cl)cc12` [G2-38, 6-chloro-2,4-dimethylisoquinolin-1(2H)-one], for which the outcome was Inactive.
As to `CCn1ccc2cc(Cl)ccc2c1=O` [G2-52, 6-chloro-2-ethylisoquinolin-1(2H)-one], the result was Inactive.
On the same count and under the same terms, next, `Cn1ccc2cc(-c3ccccn3)ccc2c1=O` [G2-39, 2-methyl-6-(pyridin-2-yl)isoquinolin-1(2H)-one]: “Inactive”; `Cn1c(=O)ccc2ccc(Nc3ccccn3)cc21` [G2-91, 1-methyl-7-(pyridin-2-ylamino)quinolin-2(1H)-one]: “Inactive”; `CCCCc1ccc2c(=O)n(C)ccc2c1` [G2-60, 6-butyl-2-methylisoquinolin-1(2H)-one]: “Inactive”.
For the compound `Cn1ccc2cc(N3CCC(c4ccccc4)CC3)ccc2c1=O` [G2-62, 2-methyl-6-(4-phenylpiperidin-1-yl)isoquinolin-1(2H)-one], the outcome was Inactive.
Still for that read-out and setting: next, `COc1ccc2c(=O)n(C)ccc2c1` [G2-30, 6-methoxy-2-methylisoquinolin-1(2H)-one]: “Active”; `O=c1ccc2ccc(F)cc2[nH]1` [G2-124, 7-fluoroquinolin-2(1H)-one]: “Active”.
For the compound `CNC(=O)c1cc(F)ccc1OC` [G2-4, 5-fluoro-2-methoxy-N-methylbenzamide], the outcome was Inactive.
Still for that read-out and setting: in the case of `CNC(=O)c1cc(Cl)ccc1OC1CC1` [G2-12, 5-chloro-2-cyclopropoxy-N-methylbenzamide] it was “Active”; in that of `COc1ccc(Cl)cc1C(=O)NCCCCO` [G2-15, 5-chloro-N-(4-hydroxybutyl)-2-methoxybenzamide], “Inactive”.
Consider `Cn1ccc2cc(N3CC4(COC4)C3)ccc2c1=O` [G2-46, 2-methyl-6-(2-oxa-6-azaspiro[3.3]heptan-6-yl)isoquinolin-1(2H)-one], for which the outcome was Inactive.
Take `CN(c1ccccc1)c1ccc2c(=O)n(C)ccc2c1` [G2-48, 2-methyl-6-(methyl(phenyl)amino)isoquinolin-1(2H)-one]: the result was Active.
Take `Cn1c(=O)ccc2ccc(Cl)cc21` [G2-54, 7-chloro-1-methylquinolin-2(1H)-one]: the Activity result is “Active (Highly Active)”.
Still for that read-out and setting: next, `Cn1ccc2cc(-c3ccc(Cl)cc3)ccc2c1=O` [G2-63, 6-(4-chlorophenyl)-2-methylisoquinolin-1(2H)-one]: “Inactive”; `CNC(=O)c1cccc(Cl)c1OC` [G2-40, 3-chloro-2-methoxy-N-methylbenzamide]: “Inactive”; `Cn1ccc2cc(Nc3ccccc3)ccc2c1=O` [G2-47, 2-methyl-6-(phenylamino)isoquinolin-1(2H)-one]: “Inactive”.
`Cn1ncc2cc(Cl)ccc2c1=O` [G2-51, 6-chloro-2-methylphthalazin-1(2H)-one]: the outcome was Active.
For the compound `Cn1ccc2cc(C#N)ccc2c1=O` [G2-31, 2-methyl-1-oxo-1,2-dihydroisoquinoline-6-carbonitrile], the result was Inactive.
For the compound `Cn1ccc2cc(N3CCCC3)ccc2c1=O` [G2-45, 2-methyl-6-(pyrrolidin-1-yl)isoquinolin-1(2H)-one], the result was Active.
Consider `CN1Cc2cc(Cl)ccc2C1=O` [G2-28, 5-chloro-2-methylisoindolin-1-one], for which the result was Active.
In the case of `O=c1ccc2c(Cl)cc(-c3ccccc3)cc2[nH]1` [G2-233, 5-chloro-7-phenylquinolin-2(1H)-one], the result was Active.
Same read-out and setting: in the case of `Cn1ccc2cc(Nc3ccccn3)ccc2c1=O` [G2-49, 2-methyl-6-(pyridin-2-ylamino)isoquinolin-1(2H)-one] it was “Inactive”; in that of `Cn1ccc2cccc(Cl)c2c1=O` [G2-24, 8-chloro-2-methylisoquinolin-1(2H)-one], “Inactive”; in that of `Cn1ccc2cc(-c3ccccc3)ccc2c1=O` [G2-41, 2-methyl-6-phenylisoquinolin-1(2H)-one], “Active”.
`CN(C)c1ccc2c(=O)n(C)ccc2c1` [G2-44, 6-(dimethylamino)-2-methylisoquinolin-1(2H)-one]: the outcome was Inactive.
Regarding `O=c1[nH]ccc2cc(Cl)ccc12` [G2-25, 6-chloroisoquinolin-1(2H)-one], the result was Active.
With `Cn1ccc2cc(S(N)(=O)=O)ccc2c1=O` [G2-67, 2-methyl-1-oxo-1,2-dihydroisoquinoline-6-sulfonamide], the result was Inactive.
As for `COc1ccc(Cl)cc1C(=O)NCC(C)C` [G2-14, 5-chloro-N-isobutyl-2-methoxybenzamide], the result was Inactive.
As for `CCCCCCOc1cc(Cl)cc2[nH]c(=O)ccc12` [G2-218, 7-chloro-5-(hexyloxy)quinolin-2(1H)-one], the result was Active.
`NC(=O)c1cc(Cl)ccc1OC(F)(F)F` [G2-6, 5-chloro-2-(trifluoromethoxy)benzamide]: the outcome was Inactive.
Take `O=c1ncc2cc(Cl)ccc2[nH]1` [G2-71, 6-chloroquinazolin-2(1H)-one]: the result was Inactive.
For the compound `CNC(=O)c1ccc(Cl)cc1OC` [G2-55, 4-chloro-2-methoxy-N-methylbenzamide], the outcome was Inactive.
In the case of `COc1ccc(Cl)cc1C(=O)N(C)C` [G2-13, 5-chloro-2-methoxy-N,N-dimethylbenzamide], the outcome was Active.
As for `Cn1ccc2ccccc2c1=O` [G2-34, 2-methylisoquinolin-1(2H)-one], the result was Inactive.
As for `Cn1ccc2cc(-c3ncccn3)ccc2c1=O` [G2-59, 2-methyl-6-(pyrimidin-2-yl)isoquinolin-1(2H)-one], the result was Inactive.
Turning to `O=c1c2ccc(Cl)cc2ccn1-c1ccccc1` [G2-53, 6-chloro-2-phenylisoquinolin-1(2H)-one], the result was Inactive.
For the compound `CNC(=O)c1cc(Cl)ccc1OC1CCN(C2CCCC2)CC1` [G2-12-2, 5-chloro-2-((1-cyclopentylpiperidin-4-yl)oxy)-N-methylbenzamide], the outcome was Inactive.
On to `Cn1cnc2cc(Cl)ccc2c1=O` [G2-27, 7-chloro-3-methylquinazolin-4(3H)-one], for which the outcome was Inactive.
`Cn1c(=O)ccc2cc(Cl)ccc21` [G2-37, 6-chloro-1-methylquinolin-2(1H)-one]: the result was Active.

The test is the same for the next values; noted with them: TABLE 1; assay not given.
Take `O=c1ccc2c(-c3ncccn3)cc(Cl)cc2[nH]1` [G2-197, 7-chloro-5-(pyrimidin-2-yl)quinolin-2(1H)-one]: the IC50 lay in the range of 1000 to 10000 nM.
In turn, `O=c1ccc2c(Cl)cc(N3CCCCC3)cc2[nH]1` [G2-235, 5-chloro-7-(piperidin-1-yl)quinolin-2(1H)-one] displayed an IC50 of 1000 to 10000 nM.
`O=c1ccc2ccc(Cl)cc2[nH]1` [G2-69, 7-chloroquinolin-2(1H)-one] showed an IC50 of 100 to 1000 nM.
The compound `O=c1ccc2c(N3CCCCC3)cc(Cl)cc2[nH]1` [G2-195, 7-chloro-5-(piperidin-1-yl)quinolin-2(1H)-one] had an IC50 of 1000 to 10000 nM.
As to `O=c1ccc2ccc(C3CC3)cc2[nH]1` [G2-156, 7-cyclopropylquinolin-2(1H)-one], the IC50 lay in the range of 1000 to 10000 nM.
On the same count and under the same terms, in the case of `O=c1ccc2ccc(F)cc2[nH]1` [G2-124, 7-fluoroquinolin-2(1H)-one] it was 1000 to 10000 nM; in that of `O=c1ccc2c(Cl)cc(-c3ccccc3)cc2[nH]1` [G2-233, 5-chloro-7-phenylquinolin-2(1H)-one], 1000 to 10000 nM.
The compound `CCCCCCOc1cc(Cl)cc2[nH]c(=O)ccc12` [G2-218, 7-chloro-5-(hexyloxy)quinolin-2(1H)-one] displayed an IC50 of 100 to 1000 nM.
